In US20180169047A1, “AMINO ACID COMPOSITIONS AND METHODS FOR THE TREATMENT OF MUSCLE DISEASES AND DISORDERS” (AXCELLA HEALTH INC., priority 2016, published 2018):

Assays:
mTORC1 = mTORC1 activity assay: rpS6 phosphorylation (AlphaScreen SureFire) in C2C12 myotubes; assay type: cell-based, mouse; parameters: key to mTOR: statistically significant assay result: statistically significant assay results between 2X and 5X doses; ns - not significant; NT - not tested; conditions: for Avg fold change of intracellular rpS6 phosphorylation (P-rpS6) compared to untreated cells: C2C12 myotubes, 30 min, normalized to total protein; for mTOR: statistically significant assay result: between 2X and 5X doses, compared to untreated control
Excerpt: Metabolism is controlled by the mTORC1 signaling complex, an essential protein kinase that regulates cellular processes such as protein synthesis and autophagy. A number of distinct signals control mTORC1 activity, including amino acids and growth factors like insulin, and proper regulation is necessary for the maintenance of muscle mass. Dysregulation of mTORC1 activity is associated with muscle wasting (atrophy) in many diseases, and conversely, addition of muscle mass (hypertrophy) requires protein synthesis-inducing mTORC1 signaling. The ability of different amino acids to induce mTORC1 signaling in myotubes was assessed using an alpha-elisa screen for phosphorylated ribosomal protein S6 (P-rpS6), an important substrate downstream of mTORC1 involved in promoting protein synthesis.
In this example, murine muscle cells were incubated with a composition including amino acids and assessed for mTORC1 activation. C2C12, mouse muscle cells, were obtained from ATCC (CRL-1772, Manassas, VA). The cells were seeded on day 0 at 1.0E4 cells per well in 96-well TC-treated microplates (Corning, Corning, NY) in Dulbecco's Modified Eagle Medium (DMEM, Corning) supplemented with 10% fetal bovine serum (Corning) and 0.2% Primocin (InVivoGen, San Diego, Calif.) and incubated for 48 hours at 37° C., 5% CO2. On day 2, the medium was changed to DMEM (Corning) supplemented with 2% horse serum (Horse Serum, New Zealand origin, ThermoFisher, Waltham, MA) and 0.2% Primocin. On day 5, the medium was replaced with fresh DMEM supplemented with 2% horse serum and 0.2% Primocin.
On day 7, the DMEM supplemented with 2% horse serum and 0.2% Primocin was replaced with amino acid free DMEM (US Biologicals, Salem, Mass.) containing a defined custom amino acid concentration based on 0.5× the mean physiological concentrations in blood based on values published in the Human Metabolome Database (HMDB (Wishart DS, Tzur D, Knox C, et al., HMDB: the Human Metabolome Database. Nucleic Acids Res. 2007 January; 35 (Database issue):D521-6. 17202168), with 25 mM Glucose, 1 mM Sodium Pyruvate and incubated for 2 hours at 37° C., 5% CO2. Next, the cell medium was replaced with amino acid free DMEM (US Biologicals, Salem, Mass.) containing a defined custom amino acid concentration based on 0.5× the mean physiological concentrations in blood based on values published in the HMDB and a dose curve of defined amino acid compositions listed in Table 5 at 4 doses relative to plasma levels (1×, 2×, 5× and 10×; as defined by mean amino acid concentrations in the HMDB database). Combinations containing N-acetylcysteine were dosed with 0.2 mM. Cells were treated for 30 min at 37° C., 5% CO2. After treatment, the cells were washed lx in 100uL cold phosphate-buffered saline 1×, pH 7.2 (PBS, ThermoFisher). For the detection of the intracellular rpS6 phosphorylation, the AlphaScreen SureFire cellular kinase assay kit (rpS6 ([…]) and the AlphaScreen protein A kit (PerkinElmer, Waltham, Mass.) were used.
Data are presented as fold change of intracellular rpS6 phosphorylation in C2C12 myotubes normalized to the total protein amount compared to untreated cells. […] Statistical significance was determined by one-way ANOVA for each composition dose relative to untreated.

C2C12 myotubes = experiment: Myotube growth assay: myotube area in C2C12 myotubes; assay type: cell-based, murine; parameters: key to GROWTH: statistically significant assay result: statistically significant assay results between 2X and 5X doses; ns - not significant; NT - not tested; conditions: for myotube growth dose response, Avg myotube area normalized to nuclear count: untreated = 1.000; for GROWTH: statistically significant assay result: between 2X and 5X doses, compared to untreated control
Excerpt: Myotubes are multi-nucleated and elongated cells that express master regulators of skeletal muscle gene expression including MyoD and Myogenin. Myotubes are formed by differentiating myoblasts (muscle progenitor cells) for approximately 1 week. Once formed, myotubes size can be promoted (e.g. insulin) or inhibited (e.g. myostatin) with various molecules in order to assess effects on muscle size in vitro. C2C12 cells are commonly-used murine myogenic cells that upon differentiation form myotubes. C2C12 myotubes were used to test whether specific amino acid compositions can promote growth in vitro.
C2C12 murine myoblast cells (ATCC CRL-1772) were seeded on day 0 at 1.0E4 cells per well in collagen I coated 96-well optical polymer microplates (ThermoFisher) in Dulbecco's Modified Eagle Medium (DMEM, Corning) supplemented with 10% heat inactivated fetal bovine serum (HI-FBS, Atlanta Biologicals) and 0.2% Primocin (InVivoGen) and incubated overnight at 37° C., 5% CO2. On day 1, media was washed and differentiation media (DMEM supplemented with 2% horse serum) was added to the cells and fresh differentiation media was also applied on Day 3. On Day 6, cells were washed with amino acid-free DMEM and then treated with basal growth media containing 0.2% dialyzed FBS and all amino acids at 0.25× concentrations found in plasma based on values reported in the Human Metabolome Database (HMDB).
Fresh growth media and AA treatments were applied a second time on Day 8. On day 10, media was removed and cells were incubated in pre-warmed 4% Paraformaldehyde in PBS for 12 mins at room temperature and then washed 3× in PBS. Immunostaining with MHC (MF-20, University of Iowa Developmental Hybridoma Studies bank) was performed according to cell signaling general immunofluorescence protocol. Briefly, fixed cells were incubated in blocking buffer (5% normal goat serum 0.3% triton PBS) for 30-60 minutes, and then incubated overnight at 4° C. in primary antibody 1:1000 in antibody dilution buffer (1% BSA 0.3% triton in PBS). The next day the plate was equilibrated to room temperature, washed 3 times for 5 minutes in room temperature PBS and then with secondary antibody (Fab′ anti-mouse Alexa488, 1:2000) in antibody dilution buffer for 1-2 hours. Cells were washed 2 times for 5 minutes, incubated in Hoechst stain (Mol Probes 1:4000) for 10 minutes at room temperature, and washed an additional 2 times five minutes each in PBS. Molecular device HCS was used for image acquisition and analysis. Imaging was performed with a 10× wide field objective at both GFP and UV channels (FITC and DAPI) and analysis was performed using a modified version of the angiogenesis module in the MetaExpress Software measuring average total myotube area, myotube breadth, total nuclear counts, fused nuclear counts, and unfused nuclear counts.

[1] = tested on: C2C12 murine myoblast cells; experiment: Myogenesis assay: myotube differentiation of C2C12 myoblasts, MHC immunostaining; assay type: cell-based; parameters: key to MYOGENESIS: statistically significant assay result: statistically significant assay results between 2X and 5X doses; ns - not significant; NT - not tested; conditions: for myogenesis dose response, Avg fold-change to untreated: C2C12 myoblasts differentiated 4 days
Excerpt: Myogenesis is the process of forming skeletal muscle fibers (myofibers) which contain the minimal contractile units (sarcomeres) responsible for force transduction and load bearing in higher eukaryotes. During development single nucleated myogenic cells fuse, differentiate, and induce expression of the cytoskeletal complexes required for muscle contraction. A highly similar process is induced in response to muscle injury where satellite cells, or skeletal muscle stem cells, are activated, differentiate and fuse with damaged myofibers, thereby contributing myonuclei and supporting muscle repair. C2C12 cells are murine myogenic cells that, upon differentiation, fuse to form multi-nucleated myotubes (primitive myofibers) that express master regulators of muscle-specific gene expression, for example myosin heavy chain, a critical component of sarcomeres. C2C12 cells were selected as a model of myogenesis and used to test whether specific amino acid compositions would promote formation of myotubes and expression of the myotube-specific marker myosin heavy chain.
C2C12 murine myoblast cells were obtained from ATCC (CRL-1772) and seeded on day 0 at 1.0E4 cells per well in collagen I coated 96-well optical polymer microplates (ThermoFisher) in Dulbecco's Modified Eagle Medium (DMEM, Corning) supplemented with 10% heat inactivated fetal bovine serum (HI-FBS, Atlanta Biologicals) and 0.2% Primocin (InVivoGen) and incubated overnight at 37° C., 5% CO2. […] Cells were differentiated for 4 days at 37° C., 5% CO2 with a media replenishment and an additional amino acid composition or control treatment on Day 3. On day 5, the media was removed and cells were incubated in pre-warmed 4% Paraformaldehyde in PBS for 12 mins at room temperature and then washed 3× in PBS.
Immunostaining with MHC (MF-20, University of Iowa Developmental Hybridoma Studies bank) was performed according to cell signaling general immunofluorescence protocol. Briefly, fixed cells were incubated in blocking buffer (5% normal goat serum 0.3% triton PBS) for 30 to 60 minutes, and then incubated overnight at 4° C. in primary antibody 1:1000 in antibody dilution buffer (1% BSA 0.3% triton in PBS). The next day the plate was equilibrated to room temperature, washed 3 times for 5 minutes in room temperature PBS and then with secondary antibody (Fab' anti-mouse Alexa488, 1:2000) in antibody dilution buffer for 1-2 hours. Cells were washed two times for 5 minutes, incubated in Hoechst stain (Mol Probes 1:4000) for 10 minutes at room temperature, and washed an additional two times for five minutes each in PBS. Molecular device HCS was used for image acquisition and analysis. Imaging was performed with a 10× wide field objective at both GFP and UV channels (FITC and DAPI) and analysis was performed using a custom module in the MetaExpress Software measuring average FITC intensity, integrated FITC intensity, and nuclear counts.
The data is the average of 3 independent experiments.

[2] = dose 1X relative to plasma levels
[3] = dose 2X relative to plasma levels
[4] = dose 5X relative to plasma levels
[5] = dose 10X relative to plasma levels
[6] = C2C12 myotubes, dose 1.25X relative to plasma levels
[7] = C2C12 myotubes, dose 2.5X relative to plasma levels
[8] = C2C12 myotubes, dose 5X relative to plasma levels
[9] = C2C12 myotubes, dose 10X relative to plasma levels

Structure (SMILES)	Avg fold change of intracellular rpS6 phosphorylation (P-rpS6) compared to untreated cells (mTORC1; [2])	Avg fold change of intracellular rpS6 phosphorylation (P-rpS6) compared to untreated cells (mTORC1; [3])	Avg fold change of intracellular rpS6 phosphorylation (P-rpS6) compared to untreated cells (mTORC1; [4])	Avg fold change of intracellular rpS6 phosphorylation (P-rpS6) compared to untreated cells (mTORC1; [5])	mTOR: statistically significant assay result (mTORC1)	myotube growth dose response, Avg myotube area normalized to nuclear count (C2C12 myotubes; [6])	myotube growth dose response, Avg myotube area normalized to nuclear count (C2C12 myotubes; [7])	myotube growth dose response, Avg myotube area normalized to nuclear count (C2C12 myotubes; [8])	myotube growth dose response, Avg myotube area normalized to nuclear count (C2C12 myotubes; [9])	GROWTH: statistically significant assay result (C2C12 myotubes)	myogenesis dose response, Avg fold-change to untreated ([1]; dose 1.25X relative to HMDB plasma levels)	myogenesis dose response, Avg fold-change to untreated ([1]; dose 2.5X relative to HMDB plasma levels)	myogenesis dose response, Avg fold-change to untreated ([1]; dose 5X relative to HMDB plasma levels)	myogenesis dose response, Avg fold-change to untreated ([1]; dose 10X relative to HMDB plasma levels)	MYOGENESIS: statistically significant assay result ([1]; between 2X and 5X doses, compared to untreated control)	area of myotubes in the culture well (in words) (C2C12 myotubes; C2C12 myotubes, across two experiments)
CC(=O)N[C@@H](CS)C(=O)O [Nac, N-acetylcysteine]	0.9198 fold change	0.8626 fold change	0.8741 fold change	0.9485 fold change	ns	1.121	1.036	1.153	1.267	ns	–	–	–	–	–	–
NC(=O)CC[C@H](N)C(=O)O [Q, glutamine]	1.052 fold change	0.9176 fold change	0.8748 fold change	0.8139 fold change	ns	1.235	1.202	1.075	1.077	ns	1.127 fold-change	1.066 fold-change	1.087 fold-change	1.041 fold-change	ns	no effect or were inhibitory
